In one data set the test system is FGF21. Kind of data set: FGF21 expression in hepatocytes (quantitative real-time RT-PCR). The format is cell-based, human. The settings on record: Huh-7 hepatocytes, 24 h, 10 μM; FIG. 9. How it is done:
Human Huh-7 hepatocytes were incubated for 24 h in the absence (Control, CT) or in the presence of compounds (10 μM). Assessment by quantitative real-time RT-PCR of FGF21. Data are presented as the mean±SD (n=4 per group). ***p<0.001 and **p<0.01 vs CT. ^###p<0.001, ^##p<0.01 and ^#p<0.05 vs BTCtFPU. ^††p<0.01 and ^†p<0.05 vs BTdCPU. BTCtFPU=1-(benzo[d][1,2,3]thiadiazol-6-yl)-3-(4-chloro-3-(trifluoromethyl)phenyl)urea (compound (3) in Chen T. et al., ibid.).

The test system of a further data set is eIF2α. Kind of data set: eIF2α phosphorylation in human Huh-7 hepatic cells (Western-blot). Format: cell-based. The following applies: Huh-7 cells, 24 h, 10 μM, compared to BTdCPU; FIG. 3, FIG. 4. The text has this: Data are presented as the mean±SD (n=4). **p<0.01 and *p<0.05 vs. control (CT) cells. ^##p<0.01 and ^#p<0.05 vs. BTdCPU-treated cells.
Data are presented as the mean±SD (n=4). *p<0.05 vs. control (CT) cells.
HRI is a kinase that phosphorylates eukaryotic Initiation Factor 2α (eIF-2a) at its Ser 51 residue to execute protein synthesis regulation and thereby HRI activators cause the phosphorylation of eIF2α as previously described (Chen T, et al., ibid). To confirm whether the new synthesized compounds were able to activate the HRI eIF2α kinase inventors examined the eIF2α phosphorylation caused by these compounds compared to the well-known HRI eIF2α kinase activator BTdCPU. Human Huh-7 hepatocytes were incubated for 24 h with vehicle (DMSO, CT cells) or 10 μM of each of the assayed compounds. eIF2α phosphorylation was determined by Western-blot.

A further data set concerns the target T1, HRI (Homo sapiens, UniProt Q9BQI3).
T1 construct: endogenous in cells; host or cells: Huh-7 human hepatic cells
Briefly: HRI phosphorylation in human Huh-7 hepatic cells (Western-blot, ratio phosphorylated/total HRI). Format: cell-based. The settings on record: Huh-7 cells, 24 h, 10 μM; for ratio phosphorylated/total HRI: vs vehicle (DMSO) control, FIG. 1, FIG. 2. The source says:
Data are presented as the mean±SD (n=4). *p<0.05 vs. control (CT) cells. ^#p<0.05 vs. BTdCPU-treated cells. BTdCPU=1-(benzo[d][1,2,3]thiadiazol-6-yl)-3-(3,4-dichlorophenyl)urea (compound (2) in Chen T. et al., ibid.).
Data are presented as the mean±SD (n=4). ***p<0.001 and *p<0.05 vs. control (CT) cells. ^#p<0.05 vs. BTdCPU-treated cells. Compound I-2 (1-(4-chloro-3-(trifluoromethyl)phenyl)-3-(4-chloro-3-(trifluoromethyl)phenyl)urea is not part of the present invention, but it has been introduced in some figures for comparative purposes.
HRI is activated by autophosphorylation and this has been used for evaluating its activation. In fact, the hyperphosphorylation of HRI is accompanied by an increase of its eIF2α kinase activity (cf. Lu L. et al., “Translation initiation control by heme-regulated eukaryotic initiation factor 2a kinase in erythroid cells under cytoplasmic stresses”, Mol. Cell. Biol., 2001, vol. 21, pp. 7971-7980). Therefore, HRI protein constitutively exists as the native nonphosphorylated 76-kDa species and/or the autoactivated/autophosphorylated 92-kDa, although the relative abundance of each HRI species tends to vary depending on the cells examined (cf. Acharya P. et al., “Hepatic heme-regulated inhibitor (HRI) eukaryotic initiation factor 2a kinase: A protagonist of heme-mediated translational control of CYP2B enzymes and a modulator of basal endoplasmic reticulum stress tone”, Mol. Pharmacol, 2010, vol. 77, pp. 575-592). […] Thus Huh-7 cells were incubated for 24 h with vehicle (DMSO, CT cells) or 10 μM of each of the assayed compound. The effects of these compounds were compared to the well-known HRI activator BTdCPU.

T1 sequence (Q9BQI3 whole entry): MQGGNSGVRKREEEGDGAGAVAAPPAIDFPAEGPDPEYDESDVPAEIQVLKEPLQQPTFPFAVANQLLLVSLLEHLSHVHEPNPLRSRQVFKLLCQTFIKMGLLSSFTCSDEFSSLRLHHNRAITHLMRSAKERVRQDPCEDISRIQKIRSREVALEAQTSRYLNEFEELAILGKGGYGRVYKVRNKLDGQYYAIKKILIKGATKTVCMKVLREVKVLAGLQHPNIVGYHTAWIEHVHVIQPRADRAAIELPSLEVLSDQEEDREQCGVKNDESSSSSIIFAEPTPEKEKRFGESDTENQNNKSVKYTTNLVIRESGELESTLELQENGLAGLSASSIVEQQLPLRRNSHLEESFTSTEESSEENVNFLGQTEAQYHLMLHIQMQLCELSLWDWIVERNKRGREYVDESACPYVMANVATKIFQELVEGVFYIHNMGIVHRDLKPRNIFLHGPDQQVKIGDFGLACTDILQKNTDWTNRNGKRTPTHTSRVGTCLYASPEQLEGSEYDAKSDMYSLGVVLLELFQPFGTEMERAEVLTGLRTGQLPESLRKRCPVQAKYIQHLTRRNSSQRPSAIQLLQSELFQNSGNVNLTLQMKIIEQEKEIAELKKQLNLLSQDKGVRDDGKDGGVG

Regarding `O=C(Nc1cccc(S(F)(F)(F)(F)F)c1)Nc1cccc(S(F)(F)(F)(F)F)c1` [compound I-36, 1,3-Bis(3-(pentafluoro-λ^6-sulfanyl)phenyl)urea], in the data set on FGF21, the “FGF21 expression compared with BTCtFPU” value was “significant higher increase than compound BTCtFPU” and the “FGF21 expression compared with BTdCPU” value is “significant higher increase in FGF21 expression than compound BTdCPU”.

The melting point is the temperature, or range, at which the solid turns liquid. As to `O=C(Nc1ccc(S(F)(F)(F)(F)F)cc1)Nc1cccc(S(F)(F)(F)(F)F)c1` [compound I-37, 1-(3-(Pentafluoro-λ^6-sulfanyl)phenyl)-3-(4-(pentafluoro-λ^6-sulfanyl)phenyl)urea], the melting point lay in the range of 216 to 217 °C. In the data set on FGF21, the “FGF21 expression compared with BTCtFPU” value was “significant higher increase than compound BTCtFPU” and the “FGF21 expression compared with BTdCPU” value was “significant higher increase in FGF21 expression than compound BTdCPU”.

As to `O=C(Nc1ccc(Cl)c(S(F)(F)(F)(F)F)c1)Nc1ccc(Cl)c(S(F)(F)(F)(F)F)c1` [compound I-38, 1,3-Bis(4-chloro-3-(pentafluoro-λ^6-sulfanyl)phenyl)urea], the melting point lay in the range of 237 to 238 °C. Further, in the data set with FGF21, the “FGF21 expression compared with BTCtFPU” value was “significant higher increase than compound BTCtFPU” and the “FGF21 expression compared with BTdCPU” value was “significant higher increase in FGF21 expression than compound BTdCPU”.

`O=C(Nc1cc(S(F)(F)(F)(F)F)ccc1Cl)Nc1cc(S(F)(F)(F)(F)F)ccc1Cl` [compound I-32, 1,3-Bis(2-chloro-5-(pentafluoro-λ^6-sulfanyl)phenyl)urea]: the melting point was in the range of 227 to 228 °C.

`O=C(Nc1ccc2nnsc2c1)Nc1cccc(S(F)(F)(F)(F)F)c1Cl` [compound I-28, 1-(Benzo[d][1,2,3]thiadiazol-6-yl)-3-(2-chloro-3-(pentafluoro-λ^6-sulfanyl)phenyl)urea] showed a melting point of 225 °C. In the data set with eIF2α, the eIF2α phosphorylation result is reported as “marked increase in eIF2α phosphorylation, higher than the observed with BTdCPU”. On HRI, the “ratio phosphorylated/total HRI” value is given as “increased the ratio phosphorylated/total HRI”.

In the case of `O=C(Nc1cccc(S(F)(F)(F)(F)F)c1)Nc1ccc2nnsc2c1` [compound I-26, 1-(Benzo[d][1,2,3]thiadiazol-6-yl)-3-(3-(pentafluoro-λ^6-sulfanyl)phenyl)urea], the melting point is 229 to 230 °C. For the same molecule, in the data set on eIF2α, the eIF2α phosphorylation result is reported as “marked increase in eIF2α phosphorylation, higher than the observed with BTdCPU”. In the data set on FGF21, the “FGF21 expression compared with BTCtFPU” value is recorded as “higher expression in FGF21 than BTCtFPU” and the “FGF21 expression compared with BTdCPU” value is “higher increase in FGF21 expression than that observed for compound BTdCPU”. At HRI, the “ratio phosphorylated/total HRI” value is “increased the ratio phosphorylated/total HRI”.

`O=C(Nc1ccc(Cl)c(C(F)(F)F)c1)Nc1cc(S(F)(F)(F)(F)F)ccc1Cl` [compound I-33, 1-(4-Chloro-3-(trifluoromethyl)phenyl)-3-(2-chloro-5-(pentafluoro-λ^6-sulfanyl)phenyl)urea]: the melting point was 156 to 157 °C. The eIF2α phosphorylation entry in the data set on eIF2α is listed as “enhanced eIF2α phosphorylation to values similar to those achieved by BTdCPU exposure”. For the same molecule, on HRI, the “ratio phosphorylated/total HRI” value was “increase caused by I-33 was also statistically significant”. Further, at HRI (FIG. 2), the “total HRI” value was “reduction in total HRI”.

Take `O=C(Nc1ccc(S(F)(F)(F)(F)F)cc1)Nc1ccc2nnsc2c1` [compound I-25, 1-(Benzo[d][1,2,3]thiadiazol-6-yl)-3-(4-(pentafluoro-λ^6-sulfanyl)phenyl)urea]: the melting point was in the range of 274 to 275 °C. The “ratio phosphorylated/total HRI” value at HRI is “increased the ratio phosphorylated/total HRI”.

The molecule `O=C(Nc1ccc2nnsc2c1)Nc1cc(S(F)(F)(F)(F)F)ccc1Cl` [compound I-27, 1-(Benzo[d][1,2,3]thiadiazol-6-yl)-3-(2-chloro-5-(pentafluoro-λ^6-sulfanyl)phenyl)urea] showed a melting point of 227 °C. For the same molecule, in the data set on eIF2α, the eIF2α phosphorylation result is reported as “marked increase in eIF2α phosphorylation, higher than the observed with BTdCPU”. For the same molecule, the “ratio phosphorylated/total HRI” value at HRI is given as “increased the ratio phosphorylated/total HRI”.

Turning to `O=C(Nc1ccc(Cl)c(S(F)(F)(F)(F)F)c1)Nc1ccc2nnsc2c1` [compound I-29, 1-(Benzo[d][1,2,3]thiadiazol-6-yl)-3-(4-chloro-3-(pentafluoro-λ^6-sulfanyl)phenyl)urea], the melting point was in the range of 213 to 214 °C. The eIF2α phosphorylation entry in the data set on eIF2α was “marked increase in eIF2α phosphorylation, higher than the observed with BTdCPU”. Also, in the data set with FGF21, the “FGF21 expression compared with BTdCPU” value is “higher increase in FGF21 expression than that observed for compound BTdCPU”. For the same molecule, the “ratio phosphorylated/total HRI” value on HRI was “increased the ratio phosphorylated/total HRI”.

The record behind these values is patent publication US20190322632A1, “HRI ACTIVATORS USEFUL FOR THE TREATMENT OF CARDIOMETABOLIC DISEASES” (UNIVERSITAT DE BARCELONA, priority 2016, published 2019).
